Several values for one entry are separate records, joined by “and”; a condition that tells them apart may be missing. Equal values may be shown once.
Columns and labels:
[1] = test system: MCF7 WT ERα tumors; assay: MIND xenograft dose-response study, MCF7 WT ERα; format: in vivo, NSG mice; conditions: vehicle 4%, p = NS
[2] = test system: MCF7 Y537S ERα tumors; assay: MIND xenograft combination study, MCF7 Y537S ERα, bone histology; format: in vivo, NSG mice; conditions: for tumor metastases to the bone (H&E and IHC staining of bone marrow): Y537S model, 5 mg/kg LAS, in contrast to vehicle control, 5 mg/kg
[3] = test system: MCF7 D538G ERα tumors; assay: MIND xenograft dose-response study, MCF7 D538G ERα; format: in vivo, NSG mice; conditions: for liver metastases (H&E): D538G mice
[4] = test system: breast cancer; conditions: PEARL trial, 5 years of LAS; cited from earlier work
[5] = test system: MCF7 Y537S ERα tumors; assay: MIND xenograft dose-response study, MCF7 Y537S ERα; format: in vivo, NSG mice; conditions: 5 and 10 mg/kg s.c. 5 days/week, at sacrifice 70 days after treatment initiation, vs vehicle
Description: Mouse studies were performed in compliance with an approved Institutional Animal Care and Use Committee protocol at the University of Chicago. To better mimic the progression of ductal lesions to invasive disease, a mammary intraductal (MIND) mouse model was used. NSG (NOD.Cg-Prkdc^scid Il2rg^tm1Wjl/SzJ) mice (Jackson Laboratories) were anesthetized by intraperitoneal injections with a ketamine/xylazine (100/5 mg/kg) mixture in PBS prior to cancer cell injections. Single-cell suspensions of 250,000 WT or mutant MCF7 cells were injected in the mammary ducts of inguinal glands as previously described. Tumor cell growth in situ was followed once weekly or biweekly after injection via luminescence imaging with a Xenogen IVIS 200 instrument in the Integrated Small Animal Imaging Research Resource at the University of Chicago. […] Effects were evaluated in the models expressing WT, Y537S, and D538G ERα for monotherapies, and in the model expressing Y537S ERα for combination therapies.
Treatment was initiated 2 to 3 weeks (dose-response study) or at day 20 (combination study) after cancer cell injections. […] Metastases were evaluated with ex vivo imaging of excised long bones, brains, lungs, and livers and quantified by luciferase activity for the combination study.
Tissues were harvested and fixed in formalin. […] Lung and bone metastases were analyzed using the NSI-Elements software from Nikon. […]

[6] = fulvestrant 5 mg/mouse, 10 legs examined
[7] = lasofoxifene 5 mg/kg, 10 legs examined
[8] = lasofoxifene 10 mg/kg, 10 legs examined
[9] = palbociclib 35 mg/kg, 12 legs examined
[10] = palbociclib 70 mg/kg, 12 legs examined

C[C@]12CC[C@@H]3c4ccc(O)cc4C[C@@H](CCCCCCCCC[S+]([O-])CCCC(F)(F)C(F)(F)F)[C@H]3[C@@H]1CC[C@@H]2O (stereo partly shown) [Fulvestrant]
average percent area of lung metastasis ([1]; 5 mg/mouse s.c. once per week): 1%
Number of legs with metastases [2, 6]: 2
Number of legs with necrosis [2, 6]: 1
% necrosis ([2]; fulvestrant 5 mg/mouse, leg with necrosis): 18%
Metastases, % of bone marrow, for each leg with metastasis ([2]; fulvestrant 5 mg/mouse, listed as FUL): 1% and 10%
liver metastases (H&E) ([3]; FUL 5 mg/mouse s.c. once per week): no liver metastases were observed

Oc1ccc2c(c1)CC[C@H](c1ccccc1)[C@@H]2c1ccc(OCCN2CCCC2)cc1 [Lasofoxifene]
average percent area of lung metastasis ([1]; all tested doses (1, 5, 10 mg/kg s.c. 5 days/week)): 0.9–1.5%
tumor metastases to the bone (H&E and IHC staining of bone marrow) [2]: No metastases were observed
tumor metastases to the bone (H&E and IHC staining of bone marrow) ([2]; listed as LAS): completely blocked
Number of legs with metastases [2, 7]: none
Number of legs with necrosis [2, 7]: none
Number of legs with metastases [2, 8]: none
Number of legs with necrosis [2, 8]: none
reduced risk for invasive ER+ breast cancer [4]: 83%
reduced risk for total breast cancers [4]: 79%
Reduction in tumor weight [5]: approximately 60%
liver metastases (H&E) ([3]; LAS 1, 5, 10 mg/kg s.c. 5 days/week): no liver metastases were observed
Reduction in tumor weight ([3]; D538G, 5 and 10 mg/kg s.c. 5 days/week, at sacrifice 70 days after treatment initiation, vs vehicle): ~50%

CC(=O)c1c(C)c2cnc(Nc3ccc(N4CCNCC4)cn3)nc2n(C2CCCC2)c1=O [Palbociclib]
Number of legs with metastases [2, 9]: none
Number of legs with necrosis [2, 9]: none
Number of legs with metastases [2, 10]: none
Number of legs with necrosis [2, 10]: none

Reference: publication PMC8117302 (Breast Cancer Research : BCR, 2021)
